Source: patent US8835476B2, “Synthesis of novel antimicrobials” (priority 2005, dated 2014)
In brackets after ≈: the same amount, converted by molar mass. Read-outs that look alike come from different tables or passages of the source.

Experiments:
Format in all cases: cell-based
[1] = test system: B. cepacia ATCC 25416; assay: Broth microdilution MIC, ATCC strains; conditions: Burkholderia cepacia
Procedure, shortened: (§1)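 Clinical organisms, randomly drawn NAUTICA urinary isolates, and ATCC reference strains tested by NCCLS M7-A6 broth microdilution at 5×10^5 CFU/ml. Incubation 16 to 20 hours, 35° C, ambient air; MIC defined as lowest concentration without visible growth.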

[2] = test system: E. aerogenes ATCC 13048; assay: Broth microdilution MIC, ATCC strains; conditions: Klebsiella aerogenes
Procedure, shortened: as §1

[3] = test system: E. coli ATCC 25922; assay: Broth microdilution MIC, ATCC strains; conditions: for MIC: Escherichia coli; for MIC (growth inhibition, microdilution method): E. coli ATCC 25922
Procedure, shortened: as §1

[4] = test system: E. faecalis ATCC 29212; assay: Broth microdilution MIC, ATCC strains; conditions: for MIC: Enterococcus faecalis, read-out: MIC (growth inhibition, microdilution method)
Procedure, shortened: as §1

[5] = test system: K. oxytoca ATCC 49131; assay: Broth microdilution MIC, ATCC strains; conditions: Klebsiella oxytoca
Procedure, shortened: as §1

[6] = test system: K. pneumoniae ATCC 13883; assay: Broth microdilution MIC, ATCC strains; conditions: Klebsiella pneumoniae
Procedure, shortened: as §1

[7] = test system: P. vulgaris ATCC 49132; assay: Broth microdilution MIC, ATCC strains; conditions: Proteus vulgaris
Procedure, shortened: as §1

[8] = test system: Pr. stuartii ATCC 33672; assay: Broth microdilution MIC, ATCC strains; conditions: Providencia stuartii
Procedure, shortened: as §1

[9] = test system: S. aureus ATCC 29213; assay: Broth microdilution MIC, ATCC strains; conditions: for MIC: Staphylococcus aureus; for MIC (growth inhibition, microdilution method): S. aureus ATCC 29213
Procedure, shortened: as §1

[10] = test system: S. marcescens ATCC 8100; assay: Broth microdilution MIC, ATCC strains; conditions: Serratia marcescens
Procedure, shortened: as §1

[11] = test system: S. simulans ATCC 27848; assay: Broth microdilution MIC, ATCC strains; conditions: Staphylococcus simulans, ATCC27848, read-out: MIC (growth inhibition, microdilution method)
Procedure, shortened: as §1

[12] = test system: Ps. aeruginosa clinical isolates; assay: Broth microdilution MIC, clinical isolate strains (NAUTICA); conditions: unit assumed
Procedure, shortened: as §1

[13] = ATCC25416, B. cepacia ATCC 25416, read-out: MIC (growth inhibition, microdilution method)
[14] = ATCC13048, read-out: MIC (growth inhibition, microdilution method)
[15] = ATCC25922, E. coli ATCC 25922, read-out: MIC (growth inhibition, microdilution method)
[16] = ATCC25922, read-out: MIC (growth inhibition, microdilution method)
[17] = ATCC29212, E. faecalis ATCC 29212
[18] = ATCC29212, E. faecalis, ATCC number not given
[19] = ATCC49131, read-out: MIC (growth inhibition, microdilution method)
[20] = ATCC13883, read-out: MIC (growth inhibition, microdilution method)
[21] = ATCC49132, read-out: MIC (growth inhibition, microdilution method)
[22] = ATCC33672, Pr. stuartii ATCC 33672, read-out: MIC (growth inhibition, microdilution method)
[23] = ATCC29213, read-out: MIC (growth inhibition, microdilution method)
[24] = ATCC8100, read-out: MIC (growth inhibition, microdilution method)
[25] = ATCC33672, read-out: MIC (growth inhibition, microdilution method)
[26] = ATCC29213, S. aureus ATCC 29213, read-out: MIC (growth inhibition, microdilution method)
[27] = ATCC13048, E. aerogenes ATCC 13048, read-out: MIC (growth inhibition, microdilution method)
[28] = ATCC49131, K. oxytoca ATCC 49131, read-out: MIC (growth inhibition, microdilution method)
[29] = ATCC13883, K. pneumoniae ATCC 13883, read-out: MIC (growth inhibition, microdilution method)
[30] = ATCC49132, P. vulgaris ATCC 49132, read-out: MIC (growth inhibition, microdilution method)
[31] = ATCC8100, S. marcescens ATCC 8100, read-out: MIC (growth inhibition, microdilution method)
[32] = E. faecalis, ATCC number not given
[33] = Table 4B, each table row is one clinical isolate

Compound | MIC [1, 13] [µg/mL] | MIC [3, 15] [µg/mL] | MIC [4, 17] [µg/mL] | MIC [4, 18] [µg/mL] | MIC [8, 22] [µg/mL] | MIC [11] [µg/mL] | MIC [9, 26] [µg/mL] | MIC [2, 27] [µg/mL] | MIC [5, 28] [µg/mL] | MIC [6, 29] [µg/mL] | MIC [7, 30] [µg/mL] | MIC [10, 31] [µg/mL] | MIC, PS. AER [12, 33] [µg/mL] | also measured
O=C(O)c1cc(-c2nnn[nH]2)c(C(=O)O)s1 [DNM-111, 3-(1H-tetrazol-5-yl)thiophene-2,5-dicarboxylic acid] | 64 (≈ 266 µM) | 64 (≈ 266 µM) | 8 (≈ 33.3 µM) | 8 (≈ 33.3 µM) | 256 (≈ 1070 µM) | 256 (≈ 1070 µM) | – | – | – | – | – | – | – | MIC [2, 14]: 128 µg/mL (≈ 533 µM); MIC [3, 16]: 128 µg/mL (≈ 533 µM); MIC [5, 19]: 128 µg/mL (≈ 533 µM); MIC [6, 20]: 128 µg/mL (≈ 533 µM); MIC [7, 21]: 128 µg/mL (≈ 533 µM); MIC [9, 23]: 128 µg/mL (≈ 533 µM); MIC [10, 24]: 128 µg/mL (≈ 533 µM); MIC, PS. AER ([12]; clinical isolates, one table line per isolate): 128 µg/mL (≈ 533 µM)
Cn1nnc(-c2cc(C(=O)O)sc2C(=O)O)n1 [DNM-112, 3-(2-Methyl-2H-tetrazol-5-yl)-thiophene-2,5-dicarboxylic acid] | – | – | 8 (≈ 31.5 µM) | 8 (≈ 31.5 µM) | – | 8 (≈ 31.5 µM) | 16 (≈ 62.9 µM) | – | – | – | – | – | – | MIC ([1]; ATCC25416, read-out: MIC (growth inhibition, microdilution method)): > 256 µg/mL; MIC [2, 14]: > 256 µg/mL; MIC [3, 16]: > 256 µg/mL; MIC [5, 19]: > 256 µg/mL; MIC [6, 20]: > 256 µg/mL; MIC [7, 21]: > 256 µg/mL; MIC [8, 25]: > 256 µg/mL; MIC [10, 24]: > 256 µg/mL
COC(=O)c1cc(-c2nnn(C)n2)c(C(=O)OC)s1 [DNM-114, 3-(2-methyl-2H-tetrazol-5-yl)-thiophene-2,5-dicarboxylic acid dimethyl ester] | 64 (≈ 227 µM) | – | 8 (≈ 28.3 µM) | 8 (≈ 28.3 µM) | – | 256 (≈ 907 µM) | – | – | – | – | – | – | – | MIC [2, 14]: 128 µg/mL (≈ 453 µM); MIC [3, 16]: 128 µg/mL (≈ 453 µM); MIC [5, 19]: 128 µg/mL (≈ 453 µM); MIC [6, 20]: 128 µg/mL (≈ 453 µM); MIC [7, 21]: 128 µg/mL (≈ 453 µM); MIC [8, 25]: 128 µg/mL (≈ 453 µM); MIC [9, 23]: 128 µg/mL (≈ 453 µM); MIC [10, 24]: 128 µg/mL (≈ 453 µM)
O=C(O)c1cc(-c2nn[nH]n2)cs1 [DNM-116, 4-(2H-Tetrazol-5-yl)-thiophene-2-carboxylic acid] | 16 (≈ 81.6 µM) | 16 (≈ 81.6 µM) | 8 (≈ 40.8 µM) | 8 (≈ 40.8 µM) | 32 (≈ 163 µM) | > 32 | 32 (≈ 163 µM) | 16 (≈ 81.6 µM) | 16 (≈ 81.6 µM) | 16 (≈ 81.6 µM) | 32 (≈ 163 µM) | 16 (≈ 81.6 µM) | – | MIC (growth inhibition, microdilution method) [3]: 8 µg/mL (≈ 40.8 µM); MIC (growth inhibition, microdilution method) [9]: >32 µg/mL
O=C(O)c1cc(-c2nnn[nH]2)c(-c2ccc(F)cc2)s1 [DNM-121, 5-(4-Fluoro-phenyl)-4-(1H-tetrazol-5-yl)-thiophene-2-carboxylic acid] | 64 (≈ 220 µM) | 64 (≈ 220 µM) | 8 (≈ 27.6 µM) | 8 (≈ 27.6 µM) | 64 (≈ 220 µM) | 64 (≈ 220 µM) | 64 (≈ 220 µM) | 64 (≈ 220 µM) | 64 (≈ 220 µM) | 64 (≈ 220 µM) | 64 (≈ 220 µM) | 64 (≈ 220 µM) | – | MIC (growth inhibition, microdilution method) [9]: 32 µg/mL (≈ 110 µM)
Cn1nnc(-c2cc(C(=O)O)sc2-c2ccc(F)cc2)n1 [DNM-123, 5-(4-fluorophenyl)-4-(2-methyl-2H-tetrazol-5-yl)thiophene-2-carboxylic acid] | ≤ 0.5 | 8 (≈ 26.3 µM) | 8 (≈ 26.3 µM) | 8 (≈ 26.3 µM) | > 8 | > 8 | > 8 | 8 (≈ 26.3 µM) | > 8 | 8 (≈ 26.3 µM) | > 8 | 8 (≈ 26.3 µM) | – | MIC (growth inhibition, microdilution method) [3]: 8 µg/mL (≈ 26.3 µM); MIC (growth inhibition, microdilution method) ([4]; E. faecalis ATCC 29212): 8 µg/mL (≈ 26.3 µM); MIC (growth inhibition, microdilution method) [4, 32]: 8 µg/mL (≈ 26.3 µM)
CCOC(=O)c1cc(-c2nnn[nH]2)c(-c2ccc(F)cc2)s1 [DNM-124, 5-(4-Fluoro-phenyl)-4-(1H-tetrazol-5-yl)-thiophene-2-carboxylic acid ethyl ester] | 64 (≈ 201 µM) | > 64 | > 64 | > 64 | > 64 | > 64 | > 64 | > 64 | > 64 | > 64 | > 64 | > 64 | – | –
CCOC(=O)c1cc(-c2nnn(C)n2)c(-c2ccc(F)cc2)s1 [DNM-125, ethyl 5-(4-fluorophenyl)-4-(2-methyl-2H-tetrazol-5-yl)thiophene-2-carboxylate] | > 16 | > 16 | > 16 | > 16 | > 16 | > 16 | > 16 | > 16 | > 16 | > 16 | > 16 | > 16 | > 16 | –
Fc1ccc(-c2cc(-c3nnn[nH]3)c(-c3ccc(F)cc3)s2)cc1 [DNM-131, 5-(2,5-Bis(4-fluorophenyl)thiophen-3-yl)-1H-tetrazole] | > 32 | > 32 | > 32 | 32 (≈ 94 µM) | > 32 | > 32 | 32 (≈ 94 µM) | > 32 | > 32 | > 32 | > 32 | > 32 | > 32 | MIC (growth inhibition, microdilution method) [4, 32]: >32 µg/mL; MIC (growth inhibition, microdilution method) [9]: >32 µg/mL
Cn1nnc(-c2cc(-c3ccc(F)cc3)sc2-c2ccc(F)cc2)n1 [DNM-132, 5-(2,5-bis(4-fluorophenyl)thiophen-3-yl)-2-methyl-2H-tetrazole] | > 16 | > 16 | > 16 | > 16 | > 16 | > 16 | > 16 | > 16 | > 16 | > 16 | > 16 | > 16 | > 16 | –
Cn1nnnc1-c1cc(-c2ccc(F)cc2)sc1-c1ccc(F)cc1 [DNM-133, 5-(2,5-Bis(4-fluorophenyl)thiophen-3-yl)-1-methyl-1H-tetrazole] | > 16 | > 16 | > 16 | > 16 | > 16 | > 16 | > 16 | > 16 | > 16 | > 16 | > 16 | > 16 | > 16 | –
O=C(O)c1sc(-c2ccc(F)cc2)cc1-c1nnn[nH]1 [DNM-141, 5-(4-Fluoro-phenyl)-3-(1H-tetrazol-5-yl)-thiophene-2-carboxylic acid] | > 16 | > 16 | > 16 | > 16 | > 16 | > 16 | > 16 | > 16 | > 16 | > 16 | > 16 | > 16 | > 16 | –
Cn1nnc(-c2cc(-c3ccc(F)cc3)sc2C(=O)O)n1 [DNM-142, 5-(4-Fluoro-phenyl)-3-(2-methyl-2H-tetrazol-5-yl)-thiophene-2-carboxylic acid] | > 16 | > 16 | > 16 | > 16 | > 16 | > 16 | > 16 | > 16 | > 16 | > 16 | > 16 | > 16 | > 16 | –
Cn1nnnc1-c1cc(-c2ccc(F)cc2)sc1C(=O)O [DNM-143, 5-(4-Fluoro-phenyl)-3-(1-methyl-1H-tetrazol-5-yl)-thiophene-2-carboxylic acid] | > 8 | > 8 | > 8 | > 8 | > 8 | > 8 | > 8 | > 8 | > 8 | > 8 | > 8 | > 8 | > 8 | –
